According to patent US12582652B2, “3-(ethoxydifluoromethyl)-6-(5-fluoro-6-(2,2,2-trifluoroethoxy)pyridin-3-yl)-[1,2,4]triazolo[4,3-a]pyrazine as an ion channel modulator” (Praxis Precision Medicines, Inc., priority 2022, dated 2026):
Entries after “also recorded” stand apart in the source; their conditions may differ.

Assays:
hNaV1.5 = hNaV1.5 (Homo sapiens, UniProt Q14524); assay: Peak INa voltage-dependent block, patch clamp; assay type: cell-based
Method: (§1) Voltage Dependent Block (VDB): VDB protocols used a depolarized voltage to keep channels in half-inactivated (resting) states. This allowed equilibrium binding and accurate determination of isoform selectivity (in the absence of biological features). For each cell, the midpoint of inactivation (V0.5) was determined using a 5,000 ms step to increase voltages (10 mV increments) to inactivate the channel immediately followed by a 2 ms step to 0 mV to maximally activate the channels. The holding potential (Vhold) was −120 mV between steps. The peak INa measured in response to the step to 0 mV was plotted and fitted with a Boltzmann equation to determine the V0.5. This value was then used for the VDB protocol. Pharmacology was measured during peak INa in response to step to 0 mV. No leak subtraction was used.

hNaV1.2 = hNaV1.2 (Homo sapiens, UniProt Q99250); assay: Peak INa voltage-dependent block, patch clamp; assay type: cell-based
hNaV1.2, sequence (Q99250 whole entry): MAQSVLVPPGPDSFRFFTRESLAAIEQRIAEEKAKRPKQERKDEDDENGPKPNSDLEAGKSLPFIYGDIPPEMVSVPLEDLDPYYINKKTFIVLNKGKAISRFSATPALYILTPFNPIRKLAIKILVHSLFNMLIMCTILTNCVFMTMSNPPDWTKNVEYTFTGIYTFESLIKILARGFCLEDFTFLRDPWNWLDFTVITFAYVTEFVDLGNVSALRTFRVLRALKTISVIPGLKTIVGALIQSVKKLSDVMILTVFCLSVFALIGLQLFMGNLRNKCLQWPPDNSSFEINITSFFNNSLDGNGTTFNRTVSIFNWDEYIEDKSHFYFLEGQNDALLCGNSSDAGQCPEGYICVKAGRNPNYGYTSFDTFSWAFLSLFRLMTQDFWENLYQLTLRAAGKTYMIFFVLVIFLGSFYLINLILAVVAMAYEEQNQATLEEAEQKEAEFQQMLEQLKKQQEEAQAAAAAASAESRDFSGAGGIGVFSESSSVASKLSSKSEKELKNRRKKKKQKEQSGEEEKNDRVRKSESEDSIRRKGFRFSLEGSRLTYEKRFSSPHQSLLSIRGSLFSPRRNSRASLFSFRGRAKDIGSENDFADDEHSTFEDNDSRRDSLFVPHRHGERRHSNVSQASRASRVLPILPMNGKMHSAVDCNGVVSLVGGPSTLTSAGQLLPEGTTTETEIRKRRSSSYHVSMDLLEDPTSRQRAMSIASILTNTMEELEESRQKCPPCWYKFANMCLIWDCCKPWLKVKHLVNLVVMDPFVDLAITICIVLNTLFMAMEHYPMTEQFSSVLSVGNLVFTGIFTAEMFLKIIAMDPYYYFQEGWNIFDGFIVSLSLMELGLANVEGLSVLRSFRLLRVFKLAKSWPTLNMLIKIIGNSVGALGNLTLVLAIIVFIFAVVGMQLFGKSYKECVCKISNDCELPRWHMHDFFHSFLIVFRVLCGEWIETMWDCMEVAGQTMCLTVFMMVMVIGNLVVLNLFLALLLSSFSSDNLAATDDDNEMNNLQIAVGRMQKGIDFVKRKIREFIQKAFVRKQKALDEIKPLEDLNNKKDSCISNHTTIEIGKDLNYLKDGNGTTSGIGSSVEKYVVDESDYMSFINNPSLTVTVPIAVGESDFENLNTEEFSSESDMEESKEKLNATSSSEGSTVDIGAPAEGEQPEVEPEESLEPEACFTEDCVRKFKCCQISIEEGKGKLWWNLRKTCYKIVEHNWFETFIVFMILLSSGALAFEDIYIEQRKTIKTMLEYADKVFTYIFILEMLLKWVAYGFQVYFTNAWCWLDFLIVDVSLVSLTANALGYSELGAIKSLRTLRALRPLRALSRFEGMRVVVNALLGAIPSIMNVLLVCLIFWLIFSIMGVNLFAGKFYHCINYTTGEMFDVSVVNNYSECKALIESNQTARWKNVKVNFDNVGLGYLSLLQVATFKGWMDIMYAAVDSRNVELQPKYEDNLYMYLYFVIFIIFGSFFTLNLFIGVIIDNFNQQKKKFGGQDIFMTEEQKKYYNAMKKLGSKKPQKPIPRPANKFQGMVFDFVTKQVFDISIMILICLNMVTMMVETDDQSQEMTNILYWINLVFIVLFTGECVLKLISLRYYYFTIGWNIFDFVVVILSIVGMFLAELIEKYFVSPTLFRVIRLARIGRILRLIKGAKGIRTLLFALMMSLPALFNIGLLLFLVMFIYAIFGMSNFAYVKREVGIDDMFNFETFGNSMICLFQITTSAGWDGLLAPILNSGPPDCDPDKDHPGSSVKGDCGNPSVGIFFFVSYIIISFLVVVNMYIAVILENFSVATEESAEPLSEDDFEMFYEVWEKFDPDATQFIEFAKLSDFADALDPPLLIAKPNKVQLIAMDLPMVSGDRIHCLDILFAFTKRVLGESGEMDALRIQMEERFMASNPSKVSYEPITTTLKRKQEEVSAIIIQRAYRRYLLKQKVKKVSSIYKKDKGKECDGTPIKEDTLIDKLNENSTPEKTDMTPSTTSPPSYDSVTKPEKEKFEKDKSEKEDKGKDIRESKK
Method: as §1

[1] = Preliminary exposure data from first 12 participants (Example 9 study); assay type: in vivo, human
Hcn1 DEE mouse model = assay: Pentylenetetrazole (PTZ) induced seizure, Hcn1 model; assay type: in vivo
Method: (§2) Pentylenetetrazole (PTZ), a GABA receptor antagonist, can be used to create a common, chemically-induced seizure model, a model of generalized seizure.
(§3) Mice were acclimated to experimental area for minimum 30 minutes before experimentation. All experiments were performed between 10:00 am and 12:30 pm. The treatment compounds and PTZ were always prepared fresh.
(§4) Mice were randomly assigned either to different doses of Compound 1 (10 mg/kg, 1 mg/kg, or 0.1 mg/kg) or a vehicle control containing 0.5% methylcellulose and 0.2% tween 80, and dosed via oral gavage (p.o). Compound 1 and the vehicle control were administered 60 minutes before the injection of PTZ.
(§5) PTZ (100 mg/kg) was dissolved in saline and administered subcutaneously (s.c) to the experimental mice. The latency to full tonic-clonic seizure with hind limb extension was measured. The animals were sacrificed either at the time of hind limb extension or 40 minutes after PTZ administration if no hind limb extension was recorded.
(§6) Data were analyzed using a Mantel-Cox log-rank test. Brain tissue and plasma were collected from some mice for each dose of Compound 1 at the PTZ endpoint for PK analysis.

healthy participants = assay: Phase 1 SAD/MAD trial: EEG pharmacodynamics (ASSR, qEEG); assay type: in vivo, human; conditions: for reduction from baseline in ASSR phase-locking factor (PLF): Day 14, 2 hours 35 minutes postdose
Method: This was a 3-part Phase 1 clinical trial in healthy participants aged 18-55 years. Parts A and B were randomized, placebo-controlled and evaluated the effects of single (2.5-150 mg) and multiple (30-120 mg, 14 days QD (every day)) ascending oral doses of Compound 1, respectively. Part C was an open-label, randomized, crossover design evaluating the PK of a single oral dose (90 mg) in fasted and fed states. In Parts A (n=64) and B (n=32), participants were randomized 3:1 to Compound 1 or placebo (n=8/cohort). In Part C (n=16), participants were randomized 1:1 to one of two treatment sequences receiving a single dose of 90 mg Compound 1 in the fed (following a high-fat/high calorie meal) or fasted (≥10 hours after the last, and 4 hours before the next, meal) state.
In this clinical trial, the PD activity of Compound 1 was evaluated in healthy participants using electroencephalogram (EEG)-based auditory steady-state response (ASSR) measures and resting state EEG (qEEG)-based spectral power measures under eyes-open and eyes-closed conditions.

CA1 pyramidal neurons = assay: Intrinsic excitability (evoked action potentials) of CA1 pyramidal neurons, brain slice whole-cell current clamp; assay type: cell-based, mouse
Method: Three hundred micrometer coronal hippocampal slices were cut on a vibratome (VT1200; Leica) for whole-cell patch-clamp experiments. Slices were incubated for a minimum of 1 hour in the incubation solution at room temperature before patching.
Brain slices were transferred to a submerged recording chamber on an upright microscope (Slicescope Pro 1000; Scientifica) and were perfused (2 ml/min) with the extracellular artificial cerebral spinal fluid (aCSF) recording solution at 32° C.
CA1 pyramidal neurons were identified visually in the stratum pyramidale of the CA1 region of the hippocampus, using infrared-oblique illumination microscopy with a 40× water-immersion objective (Olympus) using a camera (Dage IR-2000; Dage). […] Patch-clamp recordings were made using a micromanipulator (MPC-200; Sutter) and Axon Multiclamp 700B patch-clamp amplifier (MDS). Data were acquired using pClamp software (v10; MDS) using a sampling rate of 50 kHz and low pass Bessel filtered at 10 kHz (Digidata 1550b; Axon).
Studies were performed using whole-cell current clamp recording mode. […] Once the whole-cell configuration was obtained for 2 minutes, a holding current was injected to maintain a membrane potential of approximately −70 mV. Current steps (injected current of between −60 to 340 pA in 20 pA steps, 400 ms duration) (FIG. 1B)) were applied in current clamp mode. The amplitude of current injections was relative to the holding current. A test pulse (−5 pA amplitude, 50 ms duration) was applied 650 ms after the termination of the main current step. The inter sweep interval was 5 seconds (0.2 Hz). To be included in the study, a cell had to have an access resistance of less than 20 M2 and a holding current of less than −200 pA. Once baseline action potential firing was determined in the presence of the extracellular aCSF recording solution (baseline), Compound 1 (300 nM or 3 μM) was washed onto the slice for 5 minutes before repeating the action potential generating protocol (FIG. 1B).
Data were analyzed using Axograph X software. Individual action potentials were identified and counted using a +50 mV amplitude threshold relative to pre-event baseline. The frequencies of action potentials generated were plotted for each of the current injections to create an input-frequency relationship for each cell. Action potential amplitudes were determined relative to the pre-event baseline at the +200 pA current injection step for each cell. Once an action potential count had less than three cells contributing to the averaged amplitude, it was excluded from analysis. For statistical comparisons between groups, the total number of action potentials fired per cell was calculated. Statistical analysis was performed using GraphPad Prism software (v8). […]

[2] = system: heterozygous Kcnc1 R320H mice; assay: Pentylenetetrazole (PTZ) induced seizure, Kcnc1 model; assay type: in vivo, mouse
Method: as §2, §3, §4, §5, §6

[3] = system: Scn2a^Q54 transgenic mice; assay: Spontaneous seizure frequency in Scn2aQ54 mouse model of elevated persistent sodium current; assay type: in vivo
Text: Scn2a^Q54 transgenic mice were generated as described and are maintained as a congenic line on the C57BL/6J (Jax #000664) background (B6.Q54) (Kearney et al., 2001; PMID 11166117). For experiments, F1 generation mice were produced by crossing B6.Q54 hemizygous transgenic males with SJL/J (Jax #000686) females and genotyping for the Scn2a^Q54 transgene. Experimental animals used in this study were male and female postnatal day 18-21 (P18-21) mice, with the majority being P19-P20.
Dosing solutions were freshly formulated on the morning on the study. Dosing solution contained 0.5% methylcellulose with 0.2% Tween-80 was made with 1 mL 10% Tween-80 (in ddH20) and 49 mL 0.5% methylcellulose (in ddH20) either with or without (vehicle) Compound 1 (0.3 mg/kg, 1 mg/kg, 3 mg/kg, or 10 mg/kg). Each animal received a single administration of vehicle or Compound 1 by oral gavage.
For seizure monitoring, two mice were placed into a monitoring cage (23 cm×13 cm) and two side-view cameras were placed to record baseline spontaneous seizure activity. […] After the 30-minute recording, mice were administered Compound 1 or vehicle and returned to their home cage. After 30 minutes, the two mice were returned to the monitoring cage and recorded for an additional 30 minutes to assess post-treatment seizure activity. The number of focal motor seizures with forelimb clonus and repetitive movements lasting 1-5 seconds, and generalized tonic-clonic seizures (GTCS) with rearing and falling lasting approximately 1 minute were counted. Seizures were scored offline by an observer blinded to treatment and pre/post status of the video file.
The numbers of seizures before and after treatment were counted for each animal by a reviewer blinded to treatment and pre/post status of the video record. Mice that had less than three seizures or more than 35 seizures during the baseline period were excluded from the analysis as pre-defined in the study design. Statistical analysis was conducted using two-way repeated measures ANOVA and Sidak's multiple comparisons, with p<0.05 considered statistically significant (GraphPad Prism 8.4). Change in average seizure frequency was determined by averaging each group and then computing relative change as [(avg. post−avg. pre)/avg. pre], expressed as a percentage.

[4] = Compound 1 human pharmacokinetics as stated in trial rationale; assay type: in vivo; conditions: predicted from current knowledge of pharmacokinetics
male CD-1 mice = assay: Spontaneous locomotor activity (sLMA) test
Method: Male CD-1 mice, 6-weeks old, were obtained from Vital River (Beijing, China). The average body weight was 25-35 g at the time the experiments were carried out. The mice were housed in groups of 3-5 under controlled conditions (temperature: 20-26° C.; humidity: 40-70%; air exchange rate: 10-15 cycles/hour; 12:12 light-dark cycle with lights on at 5:00 a.m.). Food and water were available ad libitum. The mice were acclimated to these conditions for 6 days before the start of the studies.
Dosing solutions were prepared on each experiment day. […] All solutions were protected from light. Samples from dosing solutions were stored at 4° C. Both compound and vehicle were dosed at 10 ml/kg.
The sLMA test was carried out over two days. 5 of 10 mice from each treatment group were tested on each day. All animals were marked on the tail with a permanent marker and weighed. Mice were randomly assigned into one of the four treatment groups. Animals were acclimated to the test room at least 30 minutes before the start of the experiment.
Possible side effects, such as overt sedation, were recorded just before the start of the sLMA test.
Each mouse was automatically tracked with overhead cameras using a 1-minute sampling window in an isolated chamber. Spontaneous locomotor activity was then analyzed offline using the Animal Behavior Video Tracking Analysis System (Ji Liang Software Technology Co., Ltd., Shanghai, China).
Locomotor status was defined as >2 mm of movement in every 200 ms (Frame-rate recorded was 20 frames/second. Locomotor status was identified in every 4 frame-to-frame interval. The accumulated shift of tracking spots that exceeded 2 mm in every 4 frame intervals was identified as a locomotor epoch). Traveling distance was calculated automatically from all the locomotion epochs and analyzed.
All mice were anesthetized with CO2. Then, terminal plasma and brain tissue samples were collected from animals in the drug treatment groups. 500 μL whole blood was collected via cardiac puncture and placed in tubes with 10 μL EDTAK2. The tubes were then placed in wet ice until centrifuged at 2000 g for 5 minutes at 4° C. The supernatant plasma was pipetted into Eppendorf tubes.
All statistical analyses were conducted using GraphPad Prism 7.0. Data are presented as mean±s.e.m., and p<0.05 was regarded as statistically significant.
Dose-response and concentration-response curves for plasma and brain were fitted for each end-point using GraphPad Prism. From these fitted curves, TD50 and TC50 values were calculated.

hNaV1.5, sequence (Q14524 1-2015 isoform Q14524-2): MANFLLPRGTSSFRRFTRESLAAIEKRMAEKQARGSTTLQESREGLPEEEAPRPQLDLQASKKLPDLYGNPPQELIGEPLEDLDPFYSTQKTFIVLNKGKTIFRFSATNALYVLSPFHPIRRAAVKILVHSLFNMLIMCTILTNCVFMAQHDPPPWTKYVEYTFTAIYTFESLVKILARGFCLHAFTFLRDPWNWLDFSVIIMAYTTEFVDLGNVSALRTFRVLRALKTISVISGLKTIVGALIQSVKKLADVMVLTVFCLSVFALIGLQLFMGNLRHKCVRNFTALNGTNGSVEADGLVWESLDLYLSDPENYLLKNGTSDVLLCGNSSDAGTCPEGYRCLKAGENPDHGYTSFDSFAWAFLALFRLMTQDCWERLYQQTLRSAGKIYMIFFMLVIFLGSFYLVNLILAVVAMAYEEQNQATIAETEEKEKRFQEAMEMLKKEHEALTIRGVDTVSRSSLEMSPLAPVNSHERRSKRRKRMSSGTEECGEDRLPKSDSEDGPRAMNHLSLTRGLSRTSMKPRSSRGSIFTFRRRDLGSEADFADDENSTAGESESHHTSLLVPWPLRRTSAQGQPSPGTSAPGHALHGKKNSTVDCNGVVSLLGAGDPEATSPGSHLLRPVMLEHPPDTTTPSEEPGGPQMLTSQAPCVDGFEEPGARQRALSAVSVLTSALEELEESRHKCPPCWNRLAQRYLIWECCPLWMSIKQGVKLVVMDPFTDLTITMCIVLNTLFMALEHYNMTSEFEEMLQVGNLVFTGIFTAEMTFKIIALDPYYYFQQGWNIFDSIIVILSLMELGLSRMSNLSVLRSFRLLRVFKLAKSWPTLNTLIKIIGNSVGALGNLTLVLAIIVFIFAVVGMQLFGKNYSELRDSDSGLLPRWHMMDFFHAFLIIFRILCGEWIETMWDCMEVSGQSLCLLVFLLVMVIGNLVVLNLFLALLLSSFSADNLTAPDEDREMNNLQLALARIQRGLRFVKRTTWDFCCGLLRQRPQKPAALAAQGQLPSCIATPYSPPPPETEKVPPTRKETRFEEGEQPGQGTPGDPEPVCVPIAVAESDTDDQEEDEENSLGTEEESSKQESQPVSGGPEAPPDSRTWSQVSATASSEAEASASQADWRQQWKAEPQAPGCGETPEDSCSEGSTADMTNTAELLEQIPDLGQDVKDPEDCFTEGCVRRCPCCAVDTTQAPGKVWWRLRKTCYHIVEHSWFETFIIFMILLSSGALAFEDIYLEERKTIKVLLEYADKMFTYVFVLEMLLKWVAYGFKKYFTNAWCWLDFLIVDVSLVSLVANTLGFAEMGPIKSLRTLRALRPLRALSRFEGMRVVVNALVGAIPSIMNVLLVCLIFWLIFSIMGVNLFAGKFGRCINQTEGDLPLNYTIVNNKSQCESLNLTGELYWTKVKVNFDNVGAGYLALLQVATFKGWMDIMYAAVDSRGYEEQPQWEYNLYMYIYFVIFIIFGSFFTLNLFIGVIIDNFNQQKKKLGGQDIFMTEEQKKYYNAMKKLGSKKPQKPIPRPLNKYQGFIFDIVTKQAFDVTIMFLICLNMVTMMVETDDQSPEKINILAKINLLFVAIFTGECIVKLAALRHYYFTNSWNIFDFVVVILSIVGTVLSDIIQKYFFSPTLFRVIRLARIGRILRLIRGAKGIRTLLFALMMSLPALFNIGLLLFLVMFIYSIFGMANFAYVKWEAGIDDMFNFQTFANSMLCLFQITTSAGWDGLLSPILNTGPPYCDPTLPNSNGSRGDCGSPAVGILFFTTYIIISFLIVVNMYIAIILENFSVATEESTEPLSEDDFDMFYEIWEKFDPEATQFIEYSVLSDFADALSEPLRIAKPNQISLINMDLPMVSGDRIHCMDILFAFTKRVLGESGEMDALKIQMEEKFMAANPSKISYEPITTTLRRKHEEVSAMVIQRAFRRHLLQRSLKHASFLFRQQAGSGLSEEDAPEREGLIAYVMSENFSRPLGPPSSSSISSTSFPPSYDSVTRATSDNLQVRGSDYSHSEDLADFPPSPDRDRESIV

For `CCOC(F)(F)c1nnc2cnc(-c3cnc(OCC(F)(F)F)c(F)c3)cn12` [Compound 1, 3-(ethoxydifluoromethyl)-6-(5-fluoro-6-(2,2,2-trifluoroethoxy)pyridin-3-yl)-[1,2,4]triazolo[4,3-a]pyrazine], the “preference for persistent INa over peak INa voltage-dependent block” value (hNaV1.5) was 5.8 fold, the “preference for persistent INa over peak INa voltage-dependent block” value (hNaV1.2) was 8.2 fold and the “Compound 1 exposures on Day 1 (after single dose)” value [1] was “above therapeutic range; also recorded: above predicted therapeutic levels”. The “exposure after 28 days of once daily dosing and auto-titration” value [1] was “approaching steady-state; also recorded: approaches steady state”, the “protection from hindlimb extension (FIG. 14E)” value (Hcn1 DEE mouse model) was “robust anticonvulsant activity” and the “reduction from baseline in ASSR phase-locking factor (PLF)” value (healthy participants; 90 mg QD) was “approximately 30%”. For the same compound, the “reduction from baseline in ASSR phase-locking factor (PLF)” value (healthy participants; 120 mg QD) was about 60%, the “qEEG Delta (1.5-6 Hz) and Theta (6-8.5 Hz) band spectral power” value (healthy participants; 120 mg single dose and 120 mg QD) was “Increases from baseline” and the “ASSR-based absolute evoked gamma power vs placebo” value (healthy participants; any Compound 1 dose level) was “No statistically significant differences”. For the same compound, the “intrinsic excitability, number of evoked APs” value (CA1 pyramidal neurons; 0.3 μmol/L (peak INa VDB IC50)) was “significantly reduced”, the AP amplitude (CA1 pyramidal neurons; +200 pA current injection, 0.3 μmol/L Compound 1, 45 μmol/L CBZ) was “without compromising” and the “number of action potentials generated / action potential firing frequency vs baseline” value (CA1 pyramidal neurons; Compound 1 at 0.3 and 3 μM, wildtype mice) was “significantly reduced”. The “efficacy in KCNC1 R320H PTZ seizure model” value ([2]; 10 mg/kg p.o., 60 min before PTZ 100 mg/kg s.c.) was “highly efficacious”, the “protection from hindlimb extension (FIG. 14D)” value ([2]; Kcnc1 DEE mouse model, PTZ) was “robust anticonvulsant activity” and the “mice showing seizures after dosing” value ([3]; 10 mg/kg) was “no mice showing any seizures”. The “seizure frequency compared to pre-treatment baseline” value ([3]; 1, 3 and 10 mg/kg p.o., 30 min after treatment) was “significant reduction”, the “protection from spontaneous seizures (FIG. 14A)” value ([3]; Scn2a Q54 DEE mouse model) was “completely block seizures” and the “reduction in seizure frequency” value ([3]; doses of 1 mg/kg and above) was 50%. For the same compound, the “time predicted to achieve 90% steady state” value [4] was “about 6 weeks”, the “effect on locomotor function” value (male CD-1 mice; 10 mg/kg) was “no effect on locomotor function” and the “total traveling distance in 30-minute sLMA test” value (male CD-1 mice; 20 and 40 mg/kg p.o.) was “significantly reduced; also recorded: reductions in the distance moved”. The “sLMA distance moved, dose-response” value (male CD-1 mice; Compound 1 10-40 mg/kg po) was “dose-dependent reductions in distance moved”, the “sLMA TC50 in brain (total)” value (male CD-1 mice; brain) was 1899 ng/g and the “sLMA TC50 in brain (free)” value (male CD-1 mice; brain, free) was 69.7 nM. The “Tolerability (sLMA) TD50” value (male CD-1 mice; dose reducing sLMA by 50%) was 44 mg/kg, the “Tolerability (sLMA) TC50 (free brain)” value (male CD-1 mice; free brain concentration) was 69.7 nM and the “sLMA TC50 in plasma (total)” value (male CD-1 mice; plasma) was 1.553 µg/mL. The “PI (Plasma)” value (male CD-1 mice; plasma TC50 (sLMA) / plasma EC50 (MES), free concentrations) was 17.3 and the “sLMA TC50 in plasma (free)” value (male CD-1 mice; plasma, free) was 308.9 nM.
